Assay results published in ChEMBL document CHEMBL1153657, “2-[4-(o-methoxyphenyl)piperazin-1-ylmethyl]-1,3-dioxoperhydroimidazo[1,5-a]pyridine as a new selective 5-HT1A receptor ligand” (Bioorg Med Chem Lett, 1996).

Experiments:
[1] = target: 5-hydroxytryptamine receptor 2A (Rattus norvegicus, UniProt P14842); experiment: Compound was evaluated for binding affinity against 5-hydroxytryptamine 2A receptor using [3H]ketanserin as a radioligand
[2] = target: T1, 5-hydroxytryptamine receptor 1A (Rattus norvegicus, UniProt P19327); experiment: Compound was evaluated for its ability to displace [3H]8-OH-DPAT from serotonin 5-hydroxytryptamine 1A receptor in rat cerebral cortex membranes; format: cell membranes, Membrane
T1 sequence (P19327 whole entry): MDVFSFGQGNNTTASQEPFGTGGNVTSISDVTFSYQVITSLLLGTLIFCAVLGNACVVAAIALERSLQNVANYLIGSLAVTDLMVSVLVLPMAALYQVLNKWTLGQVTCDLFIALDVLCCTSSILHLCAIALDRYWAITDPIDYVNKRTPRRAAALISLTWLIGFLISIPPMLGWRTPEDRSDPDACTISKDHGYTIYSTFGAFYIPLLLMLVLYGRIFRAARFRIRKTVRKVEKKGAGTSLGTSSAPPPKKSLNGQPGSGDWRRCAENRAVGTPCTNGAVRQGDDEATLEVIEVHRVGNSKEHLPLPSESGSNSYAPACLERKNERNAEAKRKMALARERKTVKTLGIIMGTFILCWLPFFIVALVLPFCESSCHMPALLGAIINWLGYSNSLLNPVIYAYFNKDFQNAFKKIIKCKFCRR

[3] = target: T2, Adrenergic receptor alpha-1 (Rattus norvegicus, UniProt P15823+P23944+P43140); experiment: Binding affinity at Alpha-1 adrenergic receptor in rat cerebral cortex membranes by [3H]prazosin displacement.; format: cell membranes, Membrane
T2 sequence (P15823 whole entry): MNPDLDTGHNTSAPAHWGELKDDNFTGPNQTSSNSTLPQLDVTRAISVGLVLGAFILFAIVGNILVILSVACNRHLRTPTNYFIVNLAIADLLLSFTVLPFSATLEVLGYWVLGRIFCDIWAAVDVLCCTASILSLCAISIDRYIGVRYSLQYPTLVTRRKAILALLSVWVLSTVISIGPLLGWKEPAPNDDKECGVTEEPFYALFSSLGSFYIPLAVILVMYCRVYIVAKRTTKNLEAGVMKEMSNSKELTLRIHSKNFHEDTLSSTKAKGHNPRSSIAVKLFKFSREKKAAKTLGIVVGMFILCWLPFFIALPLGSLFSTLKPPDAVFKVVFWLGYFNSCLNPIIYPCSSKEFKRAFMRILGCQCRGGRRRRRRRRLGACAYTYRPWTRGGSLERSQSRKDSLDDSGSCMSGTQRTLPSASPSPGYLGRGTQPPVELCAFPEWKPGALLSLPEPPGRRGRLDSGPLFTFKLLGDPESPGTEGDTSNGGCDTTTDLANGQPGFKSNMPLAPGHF
T2 sequence (P23944 whole entry): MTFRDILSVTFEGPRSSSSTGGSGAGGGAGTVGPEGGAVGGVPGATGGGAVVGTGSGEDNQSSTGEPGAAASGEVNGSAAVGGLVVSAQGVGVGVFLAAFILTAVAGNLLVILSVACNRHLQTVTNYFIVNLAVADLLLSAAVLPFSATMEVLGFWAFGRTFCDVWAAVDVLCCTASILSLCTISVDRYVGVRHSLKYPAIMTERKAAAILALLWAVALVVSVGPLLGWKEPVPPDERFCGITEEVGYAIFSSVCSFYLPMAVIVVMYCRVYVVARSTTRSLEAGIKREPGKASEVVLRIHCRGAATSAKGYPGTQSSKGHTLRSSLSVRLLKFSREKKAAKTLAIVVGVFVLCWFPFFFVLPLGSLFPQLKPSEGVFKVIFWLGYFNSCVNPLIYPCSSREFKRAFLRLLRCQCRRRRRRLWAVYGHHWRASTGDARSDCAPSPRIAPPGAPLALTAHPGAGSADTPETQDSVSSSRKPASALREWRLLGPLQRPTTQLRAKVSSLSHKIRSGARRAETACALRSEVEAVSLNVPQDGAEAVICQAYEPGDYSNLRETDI
T2 sequence (P43140 whole entry): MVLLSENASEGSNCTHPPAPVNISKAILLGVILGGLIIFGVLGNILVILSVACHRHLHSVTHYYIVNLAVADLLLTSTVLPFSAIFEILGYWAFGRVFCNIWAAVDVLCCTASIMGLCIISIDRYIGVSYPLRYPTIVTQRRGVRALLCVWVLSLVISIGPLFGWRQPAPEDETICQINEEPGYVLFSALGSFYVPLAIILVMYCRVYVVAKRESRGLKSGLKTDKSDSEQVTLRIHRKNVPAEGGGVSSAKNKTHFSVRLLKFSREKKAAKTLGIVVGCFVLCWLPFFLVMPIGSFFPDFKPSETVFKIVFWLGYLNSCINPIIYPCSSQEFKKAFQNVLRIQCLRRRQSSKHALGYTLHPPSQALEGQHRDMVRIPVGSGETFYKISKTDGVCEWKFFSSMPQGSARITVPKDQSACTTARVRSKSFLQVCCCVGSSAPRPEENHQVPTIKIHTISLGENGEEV

Chain of 5-hydroxytryptamine receptor 2A (P14842 whole entry): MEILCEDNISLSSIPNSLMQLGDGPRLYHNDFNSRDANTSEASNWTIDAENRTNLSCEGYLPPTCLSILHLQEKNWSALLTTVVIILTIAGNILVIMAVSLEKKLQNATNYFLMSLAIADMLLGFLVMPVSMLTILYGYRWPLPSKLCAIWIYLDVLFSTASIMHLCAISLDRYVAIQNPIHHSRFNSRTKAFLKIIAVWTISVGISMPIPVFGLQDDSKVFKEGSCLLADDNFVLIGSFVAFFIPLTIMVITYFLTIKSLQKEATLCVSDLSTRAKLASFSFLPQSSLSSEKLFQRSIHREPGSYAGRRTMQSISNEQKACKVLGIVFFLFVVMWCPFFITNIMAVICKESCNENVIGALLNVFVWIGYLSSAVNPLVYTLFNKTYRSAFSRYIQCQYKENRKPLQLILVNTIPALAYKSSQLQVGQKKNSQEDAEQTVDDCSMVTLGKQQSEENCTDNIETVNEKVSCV

Row | SMILES | IC50 [2] [nM] | Ki [3] [nM] | also measured
1 | COc1ccccc1N1CCN(CN2C(=O)C3CCCCN3C2=O)CC1 (stereo not given) | – | – | Ki [1]: 1000 nM
2 | COc1ccccc1N1CCN(CCN2C(=O)c3ccccc3C2=O)CC1 | – | 130 | –
3 | COc1ccccc1N1CCN(CCCN2C(=O)c3ccccc3C2=O)CC1 | – | 33 | –

Now from value to molecule, other results behind:

Row | IC50 [2] [nM] | Ki [3] [nM] | SMILES | also measured
4 | 2 | – | COc1ccccc1N1CCN(CCCCN2C(=O)CC3(CCCC3)CC2=O)CC1 | –
5 | 80 | – | COc1ccccc1N1CCN(CCCN2C(=O)CC3(CCCC3)CC2=O)CC1 | –
